Measured values: patent publication US20250134902A1, “DRUG REPURPOSING FOR DELAYED TREATMENT OF ISCHEMIC STROKE” (UNIVESRITY OF NORTH TEXAS HEALTH SCIENCE CENTER, priority 2022, published 2025)

Tested on: rat blood
Assay: Clotting (streak) assay of thrombotic potential
Experimental: Clotting assays. Thrombotic potential was assessed with trunk blood from donor rats using a protocol modified from Kim et al. (Kim et al., 2010). Oxeladin was compared to whole blood with or without the anticoagulant benzamidine and several other S1R ligands at doses 10× greater than those that stimulate the release of BDNF (Dalwadi et al., 2022; Dalwadi et al., 2017). Blood was rapidly collected into chilled, pre-weighed plastic tubes containing a known quality of EDTA disodium salt (>3.7 mM) electrostatically-coated onto the tube wall. Blood was prevented from coagulating by gently swirling the chilled EDTA-coated tube. The tube was weighed and the volume of collected blood calculated in order to compute the exact concentration of EDTA in the uncoagulated blood sample allowing us to determine which concentration of calcium to add back into the blood to initiate coagulation. Uncoagulated blood samples were stored chilled. The following was be dispensed into NUNC™ MICROWELL™ MiniTrays: 8 μL/well of normal saline containing a concentration of calcium 1.2 mM higher than that of the concentration of EDTA in the blood sample, 1 μL/well of oxeladin, 3 mM benzamidine anticoagulant positive control, or untreated or vehicle negative controls, and 1 μL/well of (EDTA-treated) uncoagulated rat blood. Plates were tilted at a 45° angle at 5, 15, 30, 45 and 60 minutes to observe coagulation (i.e., no streaking) and compared to the controls. Each triplicate well was scored by a treatment-blinded observer as Yes (coagulation, no streaking) or No (no coagulation, streaking). The experiment was repeated with two separate donor rats.
Referring to FIG. 5, the effect on thrombotic activity of test drugs, benzamidine anticoagulant positive control, or untreated or vehicle negative controls on whole blood from donor rats was assessed by tilting treated blood samples at a […] to observe coagulation (i.e., no streaking) between […] (top panel). Blood coagulation was represented by a value between 1 (no streaking, coagulation) and 0 (streaking, less or no coagulation), and values were assigned for each test drug, benzamidine, and untreated and vehicle controls (bottom panel). Quantitative results from these clotting assays, including coagulation half-life, are summarized below in Table 5.

SMILES: CCN(CC)CCOCCOC(=O)C(CC)(CC)c1ccccc1 [Oxeladin]
- effect on thrombosis in blood: do not alter thrombosis
